Laboratory results: the supplement of paper PMC10307832

Legend:
Assay in all cases: relative viability (nuclei count vs DMSO), 5 days (fraction); higher = more cells survive
[1] = compound: CC1=C(N=C(N=C1N)[C@H](CC(=O)N)NC[C@@H](C(=O)N)N)C(=O)N[C@@H]([C@H](C2=CN=CN2)OC3C(C(C(C(O3)CO)O)O)OC4C(C(C(C(O4)CO)O)OC(=O)N)O)C(=O)N[C@H](C)[C@H]([C@H](C)C(=O)N[C@@H]([C@@H](C)O)C(=O)NCCC5=NC(=CS5)C6=NC(=CS6)C(=O)NCCC[S+](C)C)O [Bleomycin] + CC(C)C[C@H](NC(=O)[C@H](Cc1ccccc1)NC(=O)c1cnccn1)B(O)O [Bortezomib] (partner 0.002 µM); details: main component drawn
Summary of the method: (§1)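 Nuclei were stained with Hoechst during a one-step fixation (final 0.05% Triton X-100, 1% formaldehyde, 1 ug/ml Hoechst) carried out 5 days after dosing, then counted on 4× images. The cells, lung cancer lines in 1536-well plates, had been dosed by pin tool the day after seeding with one drug alone or a fixed anchor-drug dose plus five library-drug doses (not always all listed) in √10 steps. Relative viability is the nuclei count in treated wells divided by that in vehicle wells, and each value is the median of duplicate plates.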

[2] = compound: COc1cc([C@@H]2c3cc4c(cc3[C@@H](O[C@@H]3O[C@@H]5CO[C@@H](C)O[C@H]5[C@H](O)[C@H]3O)[C@H]3COC(=O)[C@H]23)OCO4)cc(OC)c1O [Etoposide] + CCNC(=O)c1noc(-c2cc(C(C)C)c(O)cc2O)c1-c1ccc(CN2CCOCC2)cc1 [Luminespib] (partner 0.01 µM)
Summary of the method: as §1

[3] = compound: COc1cc([C@@H]2c3cc4c(cc3[C@@H](O[C@@H]3O[C@@H]5CO[C@@H](C)O[C@H]5[C@H](O)[C@H]3O)[C@H]3COC(=O)[C@H]23)OCO4)cc(OC)c1O [Etoposide] + Cc1nc(Nc2ncc(C(=O)Nc3c(C)cccc3Cl)s2)cc(N2CCN(CCO)CC2)n1 [Dasatinib] (partner 0.075 µM)
Summary of the method: as §1

[4] = compound: CC1=C(N=C(N=C1N)[C@H](CC(=O)N)NC[C@@H](C(=O)N)N)C(=O)N[C@@H]([C@H](C2=CN=CN2)OC3C(C(C(C(O3)CO)O)O)OC4C(C(C(C(O4)CO)O)OC(=O)N)O)C(=O)N[C@H](C)[C@H]([C@H](C)C(=O)N[C@@H]([C@@H](C)O)C(=O)NCCC5=NC(=CS5)C6=NC(=CS6)C(=O)NCCC[S+](C)C)O [Bleomycin] + Nc1ncn([C@H]2C[C@H](O)[C@@H](CO)O2)c(=O)n1 [Decitabine] (partner 2 µM); details: main component drawn
Summary of the method: as §1

Cell Line | relative viability ([1]; first compound 0.01 µM) | relative viability ([1]; first compound 0.03162 µM) | relative viability ([1]; first compound 0.1 µM) | relative viability ([1]; first compound 0.3162 µM) | relative viability ([1]; first compound 1 µM) | relative viability ([2]; first compound 0.01 µM) | relative viability ([2]; first compound 0.03162 µM) | relative viability ([2]; first compound 0.1 µM) | relative viability ([2]; first compound 0.3162 µM) | relative viability ([2]; first compound 1 µM) | relative viability ([3]; first compound 0.01 µM) | relative viability ([3]; first compound 0.03162 µM) | relative viability ([3]; first compound 0.1 µM) | relative viability ([3]; first compound 0.3162 µM) | relative viability ([3]; first compound 1 µM) | relative viability ([4]; first compound 0.01 µM) | relative viability ([4]; first compound 0.03162 µM) | relative viability ([4]; first compound 0.1 µM) | relative viability ([4]; first compound 0.3162 µM) | relative viability ([4]; first compound 1 µM)
201T | 1.12 | 1 | 1.01 | 0.921 | 0.827 | 0.839 | 1.11 | 0.952 | 0.754 | 0.539 | 0.639 | 0.655 | 0.524 | 0.548 | 0.477 | 0.839 | 0.816 | 0.677 | 0.735 | 0.561
A549 |  |  |  |  |  |  |  |  |  |  |  |  |  |  |  | 0.234 | 0.137 | 0.218 | 0.0867 | 0.0646
A-427 | 0.857 | 0.817 | 0.725 | 0.167 | 0.213 | 0.832 | 1.02 | 0.61 | 0.382 | 0.182 | 0.702 | 0.818 | 0.435 | 0.446 | 0.2 | 0.429 | 0.495 | 0.406 | 0.29 | 0.266
ABC-1 | 0.325 | 0.311 | 0.275 | 0.195 | 0.242 | 0.35 | 0.648 | 0.33 | 0.351 | 0.29 | 0.535 | 0.597 | 0.336 | 0.248 | 0.207 | 0.911 | 0.837 | 1.01 | 0.803 | 0.591
BEN | 0.909 | 0.868 | 0.967 | 0.578 | 0.609 | 0.235 | 0.583 |  | 0.206 | 0.245 | 0.353 | 0.416 |  | 0.304 | 0.351 | 0.719 | 0.745 | 0.685 | 0.607 | 0.542
CAL-12T |  | 0.87 | 0.692 | 0.293 | 0.28 | 0.28 | 0.531 | 0.212 | 0.287 | 0.348 | 0.345 | 0.473 | 0.351 | 0.396 | 0.196 |  |  |  |  | 
COR-L23 | 0.669 | 0.774 | 0.355 | 0.136 | 0.102 | 0.573 | 0.802 | 0.536 | 0.214 | 0.153 | 0.398 | 0.461 | 0.428 | 0.26 | 0.161 | 0.378 | 0.407 | 0.287 | 0.188 | 0.147
COR-L 105 | 0.711 | 0.594 | 0.549 | 0.337 | 0.292 | 0.96 | 0.765 | 0.758 | 0.625 | 0.776 | 0.3 | 0.345 | 0.273 | 0.328 | 0.293 | 0.594 | 0.588 | 0.519 | 0.419 | 0.371
Calu-6 | 0.638 | 0.673 | 0.334 | 0.226 | 0.191 |  |  |  |  |  |  |  |  |  |  |  |  |  |  | 
